The values below come from US20260234180A1, “AMINO ACID DERIVATIVE, PREPARATION METHOD THEREFOR, AND PHARMACEUTICAL COMPOSITION FOR TREATING HEPATITIS, COMPRISING SAME” (priority 2021, published 2026).

The test system of assay [1] is HBV virus. The assay is described as follows: HBV infection of HepG2-NTCP cells, Southern blot analysis. The format is cell-based, hepatitis B virus (HBV). As to conditions: 20 μM. The protocol: Specifically, the HepG2-NTCP cell line was cultured on a 6-well plate, incubation was performed overnight, HBV inhibitors were treated at a concentration of 20 μM, and the positive control Myrcludex-B (MyrB) was treated at a concentration of 200 nM, followed by culture for 24 hours. After HBV infection into the cells to make HBV 3000 genome equivalent per ml/cell (Geq/cell), the cell culture medium was replaced (medium changing, MC) a day after the viral infection to remove the virus unattached to cell membranes. In order to measure an amount of virus that entered the cell, medium changing (MC) was performed once more 4 days after viral infection. 2 days after replacement, HBeAg ELISA analysis was performed using a supernatant, and Southern blot analysis was performed with cell pellets.
First, the cell pellets were pipetted with 100 μl of HEPES lysis buffer (10 mM HEPES, 100 mM NaCl, 1 mM EDTA, 1% NP-40), placed on ice for 20 minutes, and then centrifuged with a centrifuge under the conditions at 4° C. and 13000 rpm. After transferring the supernatant only to the new microtube, 4.5 μl of nuclease buffer I (10 mM CaCl2), 12 mM MgCl2, DNase 10 units) was added to carry out a reaction at 37° C. for 2 hours, and 40 μl of 26% PEG solution was added, followed by a reaction on ice for 1 hour. After centrifuging with the centrifuge at 4° C. and 13000 rpm for 30 minutes, and the supernatant was removed cleanly. After releasing the pellets with 100 μl of nuclease buffer II (10 mM Tris, 8 mM CaCl2), 6 mM MgCl2), 287.5 μl of 0.5% SDS buffer (25 mM Tris, 10 mM EDTA, 0.5% SDS, 100 mM NaCl) was added, and 12.5 μl of 20 mg/ml proteinase K was added, followed by a reaction at 37° C. for 2 hours. 400 μl of phenol-chloroform-isoamyl alcohol was added, centrifugation was performed at room temperature at 13000 rpm after voltexing, the supernatant was transferred to a new tube, 40 μl of 3 M NaOAc was added, and 800 μl of 100% ethanol was added for inverting, followed by a reaction overnight at −20° C. After performing centrifugation at 4° C. and 13000 rpm for 30 minutes, 800 μl of 70% ethanol was added and mixed to the pellet obtained by removing the supernatant, centrifugation was performed at 4° C. and 13000 rpm for 10 minutes, and then the supernatant was discarded. The ethanol was dried for 5 minutes to leave only the HBV DNA pellets, and then the pellets were dissolved again in 15 μl of TE buffer (10 mM Tris, 1 mM EDTA). HBV DNA samples were loaded in 1% agarose gel, and electrophoresis was performed. It was then immersed in denature buffer (0.25 N NaOH, 1 M NaCl) for 30 minutes to denature dsDNA of HBV into ssDNA. The DNA in the gel was transferred to a Nylon membrane using a transfer buffer (0.4 M NaOH), the membrane was soaked with a 2×SSC buffer (sigma, cat #85639) for neutralization, followed by drying in air. The membrane was immersed in a church buffer (10% BSA, 0.5 M EDTA, 1 M NaPi, 20% SDS), and the radioisotopes were hybridized using a Mega prime kit (GE healthcare, RPN1607). After washing three times with washing buffer (2×SSC, 0.1% SDS), measurement was performed using radioisotope measurement equipment, and a relative replication rate (%) to the negative control group (Mock) was calculated and shown.

The target in assay [2] is T1, NTCP (Na+ taurocholate cotransporting peptide), HepG2-hNTCP-C4 cell line (Homo sapiens, UniProt Q14973).
T1 construct: expressed in transfected cells; host or cells: HepG2-hNTCP-C4 (HepG2 cells expressing human NTCP)
T1 sequence (Q14973 1-349): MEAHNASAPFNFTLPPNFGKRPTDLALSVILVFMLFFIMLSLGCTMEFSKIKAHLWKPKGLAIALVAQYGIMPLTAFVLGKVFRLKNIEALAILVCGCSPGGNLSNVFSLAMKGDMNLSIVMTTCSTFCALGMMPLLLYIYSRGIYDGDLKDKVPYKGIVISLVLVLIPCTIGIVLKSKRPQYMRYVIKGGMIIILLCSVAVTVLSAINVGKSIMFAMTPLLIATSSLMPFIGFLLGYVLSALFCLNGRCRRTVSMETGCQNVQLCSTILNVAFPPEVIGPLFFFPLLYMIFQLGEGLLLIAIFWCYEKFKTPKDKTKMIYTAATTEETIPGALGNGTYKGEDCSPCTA
The assay is described as follows: Inhibition of binding between FITC-labelled PreS1 and NTCP expressing cell line, flow cytometry. The protocol:
HepG2-hNTCP-C4 cell line, a cell line expressing NTCP, was seeded in a 6 well plate at a density of 2×10^5/well and incubated at 4° C. for 30 minutes when the confluency reached 80% after overnight incubation for 2 days. Thereafter, 20 nM PreS1 (Myr-GTNL […]-Lys(FITC) (SEQ ID NO: 1)) and the compounds in Example 1, Examples 38 to 56 or the compound in Comparative Example 1 were treated by diluting in culture media at 4° C. at a concentration of 50 µM respectively, and the media was suctioned after 2 hours, followed by washing 3 times with 4° C. PBS. In order to take the cells off from the plate, 500 μl of 0.5 mM EDTA PBS solution was treated, and then incubation was performed at 37° C. for 15 minutes to check whether the cells fell off through an optical microscope. After taking off the cells by pipetting, the cells were collected in a 1.5 ml tube and centrifuged (4000 rpm, 4° C., 3 min). After suctioning the supernatant, the pellet was washed 3 times with 4° C. PBS, and then green fluorescence was measured via flow cytometry. In this case, taurocholic acid (TCA), a compound known as a substrate of NTCP to reduce the entry of HBV or HDV, was used as a positive control group.
In the graph at the top of FIG. 1, black (1) and red (2) indicate a negative control group with no treatment and an HBV-induced group (HBV preS1) solely treated with PreS1, respectively. Blue (HBV preS1+HBV entry inhibitor) (3) is the fluorescence value for each of Examples or Comparative Examples, evaluated that the closer to the negative control group, the more inhibited the binding between PreS1 and the NTCP cell line.
The experimental method was the same as in the Experimental Example 1-1, and 20 nM PreS1 and each compound were treated at 4 concentrations (0.2 μM, 2 μM, 10 μM, 50 μM).
With an expectation that there is a structure-activity relationship among compounds composed of bile acid and amino acids, for each of bile acids in Comparative Example 1 (lithocholic acid, LCA), Comparative Example 2 (ursodeoxycholic acid, UDCA), Comparative Example 3 (cholic acid, CA), Comparative Example 4 (hyodeoxycholic acid, HDCA), Comparative Example 5 (deoxycholic acid, DCA), and Comparative Example 6 (chenodeoxycholic acid, CDCA), an evaluation experiment was conducted on an ability to inhibit the binding between PreS1 and NTCP expressing cell lines, and also for Examples 1 (LCA-Ile) and Example 44 (LCA-Val) as well as the compounds in Example 2 (UDCA-Ile), Example 3 (UDCA-Val), Example 6 (CA-Ile), Example 7 (CA-Val), Example 8 (HDCA-Ile), Example 9 (HDCA-Val), Example 10 (DCA-Ile), Example 11 (DCA-Val), Example 14 (CDCA-Ile), and Example 15 (CDCA-Val) in which bile acid parts (lithocholic acid) of Example 1 (LCA-Ile) and Example 44 (LCA-Val) were substituted with other types of bile acids in Comparative Examples 2 to 6, an evaluation experiment was conducted on an ability to inhibit the binding between PreS1 and NTCP expressing cell lines. The experimental method was the same as in the Experimental Example 1-1, and 18 compounds in the Comparative Examples 1 to 6, Examples 1 to 3, Examples 6 to 11, Examples 14 to 15, and Example 44 were treated at a concentration of 50 µM along with 20 nM PreS1.
In FIG. 9, an evaluation experiment was conducted to check a degree of inhibiting the binding between PreS1 and NTCP expressing cell lines for compounds in Examples 4 to 5, Examples 12 to 13, Examples 16 to 17, and Comparative Examples 2 (ursodeoxycholic acid, UDCA), Comparative Examples 5 (deoxycholic acid, DCA), and Comparative Examples 6 (chenodeoxycholic acid, CDCA) according to the present disclosure. The experimental method was the same as the Experimental Example 1-1.
In the Experimental Examples 1-4, it was determined whether there is additionally concentration dependence for Example 4 (UDCA-Trp), a compound with good inhibitory ability. […]
A general note: In flow cytometry, cells or beads pass a laser one at a time.

With `CC(C)[C@H](NC(=O)CC[C@@H](C)[C@H]1CC[C@H]2[C@@H]3CC[C@@H]4C[C@H](O)CC[C@]4(C)[C@H]3CC[C@]12C)C(=O)N[C@@H](Cc1c[nH]c2ccccc12)C(=O)O` [Example 25, (S)-2-((S)-2-((R)-4-((3R,5R,8R,9S,10S,13R,14S,17R)-3-hydroxy-10,13-dimethyl-hexadecahydro-1H-cyclopenta[a]phenanthren-17-yl)pentanamido)-3-methylbutanamido)-3-(1H-indol-3-yl)propanoic acid], the “amount of HBeAg DNA detected compared to the negative control group (Mock)” value in assay [1] is recorded as “relatively less amount”.

In the case of `C[C@H](CCC(=O)N[C@@H](Cc1ccc(O)cc1)C(=O)O)[C@H]1CC[C@H]2[C@@H]3CC[C@@H]4C[C@H](O)CC[C@]4(C)[C@H]3CC[C@]12C` [Example 52, (S)-2-((R)-4-((3R,5R,8R,9S,10S,13R,14S,17R)-3-hydroxy-10,13-dimethyl-hexadecahydro-1H-cyclopenta[a]phenanthren-17-yl)pentanamido)-3-(4-hydroxyphenyl)propanoic acid], the “effect of inhibiting the binding between PreS1 and NTCP expressing cell lines by treatment concentration” value in assay [2] (0.2 μM, 2 μM, 10 μM, 50 μM, 20 nM PreS1) was “concentration dependent”. Further, the “relative fluorescence intensity compared to Comparative Example 1 (LCA)” value in assay [2] (compound 50 µM, 20 nM PreS1, 4° C., 2 hours, lower = more inhibited binding) is “low and lower”. Also, the “amount of HBeAg DNA detected compared to the negative control group (Mock)” value in assay [1] was “relatively less amount”.

In the case of `C[C@H](CCC(=O)N[C@@H](CCC(=O)O)C(=O)O)[C@H]1CC[C@H]2[C@@H]3CC[C@@H]4C[C@H](O)CC[C@]4(C)[C@H]3CC[C@]12C` [Example 55, (S)-2-((R)-4-((3R,5R,8R,9S,10S,13R,14S,17R)-3-hydroxy-10,13-dimethyl-hexadecahydro-1H-cyclopenta[a]phenanthren-17-yl)pentanamido)pentanedioic acid], the “amount of HBeAg DNA detected compared to the negative control group (Mock)” value in assay [1] is listed as “relatively less amount”.
